In patent US7320967B2, “Cosmetic composition, method of cosmetic treatment and preparation of a composition for promoting the growth and/or preventing or delaying the loss of hair” (L'Oreal, priority 2002, dated 2008):
Read-outs that look alike come from different tables or passages of the source.

Experiments:
[1] = molecular target: T1, 15-PGDH (Homo sapiens, UniProt P15428); assay: 15-PGDH test (maximum reaction rate, optical density at 340 nm); assay type: biochemical
T1 construct: GST (glutathione S-transferase, pGEX 4T3) (N, cleaved yes); made in house; host or cells: E. coli BL21DE3plys
T1 sequence (P15428 1-266): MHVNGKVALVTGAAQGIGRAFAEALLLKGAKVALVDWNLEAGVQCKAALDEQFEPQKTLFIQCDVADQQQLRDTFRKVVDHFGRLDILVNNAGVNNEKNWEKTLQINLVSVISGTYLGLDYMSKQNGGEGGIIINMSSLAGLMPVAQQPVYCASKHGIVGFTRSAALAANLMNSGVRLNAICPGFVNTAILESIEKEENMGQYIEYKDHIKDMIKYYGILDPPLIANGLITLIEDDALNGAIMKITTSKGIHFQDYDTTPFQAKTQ
Procedure: For that, the following are for example brought into contact: the enzyme 15-PGDH at a final concentration of 7×10^−3 mg/ml, its cosubstrate (β-NAD) and a substrate (PGE2) at the concentrations corresponding to the conditions conventionally used for this test as described for example by Cho and Tai (Inhibition of NAD-dependent 15-hydroxyprostaglandin dehydrogenase (15-PGDH) by cyclooxygenase inhibitors and chemopreventive agents. Prostaglandins, Leukotrienes and Essential Fatty Acids, 2002, 67(6): 461-465), for example 1.5 mM β-NAD and 50 μM prostaglandin E2. The rate of the reaction is measured at 37° C. for 1 minute. The same reaction is carried out, but adding the test compound to the medium at the start of the reaction. The maximum enzyme reaction rate per unit of time (Vmax) measured in the presence of the compound is compared to that of the control with no compound, and the percentage inhibition [100−(Vmax assay×100)/Vmax control] is determined.
The enzyme obtained is at the concentration of 0.3 mg/ml and is blocked at −80° C. This suspension is thawed and stored on ice.
Preparation of a 100 mM Tris buffer pH=7.4 containing 0.1 mM dithiothreitol (D5545, Sigma-Aldrich, L'isle D'Abeau Chesne, BP 701, 38297, Saint Quentin Fallavier), 1.5 mM β-NAD (N6522, Sigma-Aldrich, L'isle D'Abeau Chesne, BP 701, 38297, Saint Quentin Fallavier), 50 μM Prostaglandin E2 (P4172, Sigma-Aldrich, L'isle D'Abeau Chesne, BP 701, 38297, Saint Quentin Fallavier).
0.965 ml of this buffer (previously heated to 37° C.) is introduced into a spectrophotometer cuvette (Perkin-Elmer, Lambda 2) thermostated at 37° C., whose wavelength for measurement is set at 340 nm. 0.035 ml of enzymatic suspension at 37° C. are introduced into the cuvette concomitantly with the recording (increase in the optical density at 340 nm).
(§1) The maximum reaction rate is recorded.
(§2) The test values (molecules) are compared with the control value (with no molecule), the results are expressed as % of the control value.

[2] = molecular target: T2, PGFS (Homo sapiens, UniProt P42330, H5Q); assay: PGFS test (maximum reaction rate, optical density at 340 nm); assay type: biochemical; settings: for IC50: protocol of Example 3
T2 construct: GST (glutathione S-transferase, pGEX 2T) (N, cleaved yes); made in house; host or cells: E. coli BL21DE3
T2 sequence (P42330 1-323 H5Q): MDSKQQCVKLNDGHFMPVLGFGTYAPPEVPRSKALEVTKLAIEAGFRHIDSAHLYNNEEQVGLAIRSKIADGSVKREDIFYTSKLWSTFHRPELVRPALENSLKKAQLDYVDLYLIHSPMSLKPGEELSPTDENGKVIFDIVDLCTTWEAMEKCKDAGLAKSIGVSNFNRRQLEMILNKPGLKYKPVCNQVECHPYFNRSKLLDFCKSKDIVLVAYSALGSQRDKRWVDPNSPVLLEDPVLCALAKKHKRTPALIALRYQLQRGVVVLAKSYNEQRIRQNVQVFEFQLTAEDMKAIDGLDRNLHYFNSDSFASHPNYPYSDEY
Procedure: The compounds noted as 15-PGDH inhibitors are then tested for their capacity to inhibit PGF synthase. For that, the following are for example brought into contact: the enzyme PGFS at a final concentration of 25×10^−3 mg/l, its cosubstrate (β-NADPH2) and a substrate (for example phenanthrenequinone) at the concentrations conventionally used for this test as described for example by Suzuki et al. (cDNA cloning, expression and mutagenesis study of liver-type prostaglandin F synthase. J Biol Chem, 1999, 274(1): 241-248), that is to say 100 μM β-NADPH2 and 20 μM phenanthrenequinone. The maximum reaction rate is measured per unit of time at 37° C. The same reaction is carried out but adding the test compound to the medium at the start of the reaction. The maximum enzyme reaction rate with the compound is compared to that of the control with no compound, and the percentage inhibition [100−(Vmax assay×100)/Vmax control] is determined.
The enzyme obtained is at a concentration of 0.5 mg/ml and blocked at −80° C. This suspension is thawed and stored on ice.
Preparation in a brown flask (protection from light) of a 100 mM Tris buffer pH=6.5 containing 20 μM 9,10-phenanthrenequinone* (P2896, Sigma-Aldrich, L'isle D'Abeau Chesne, BP 701, 38297, Saint Quentin Fallavier) and 100 μM β-NADPH (N1630, Sigma-Aldrich, L'isle D'Abeau Chesne, BP 701, 38297, Saint Quentin Fallavier). A stock solution having a titre of 1 mM is prepared in absolute ethanol heated to 40° C., the flask is placed in an ultrasonic tank in order to facilitate the solubilization of the product.
0.950 ml of this buffer (previously heated to 37° C.) is introduced into the cuvette of a spectrophotometer (Perkin-Elmer, Lambda 2) thermostated at 37° C. whose wavelength for measurement is set at 340 nm. 0.05 ml of enzymatic suspension at 37° C. is introduced into the cuvette concomitantly with the recording (reduction in the optical density at 340 nm).
as §1, §2

[3] = system: PGF2α secreted by U937 cells; assay: Cellular model: PGF2α secreted by PMA-differentiated, LPS-stimulated U937 cells; assay type: cell-based; settings: 5 μM; U937 + 10 nM PMA, then LPS, 6 h
Procedure: This makes it possible to evaluate the efficacy of a selective 15-PGDH inhibitor on the protection of prostaglandins in a complex biological system producing the different types of enzyme involved in the metabolism of these molecules. For example, a culture of promonocytes is used, these being precursors of macrophages under certain conditions, a model which is very widespread for studying the metabolism of prostaglandins.
Indeed, the phorbol esters (10 nM PMA) cause within 24 h 00 min the differentiation of the promonocyte line U937 into macrophages; this differentiation is accompanied by the induction of 15-PGDH. (Tong and Tai, Biochim Biophys Acta, 2000; 1497: 61-68).
Moreover, stimulation of these macrophages by LPS (lipopolysaccharide extracted from the bacterial wall) induces (at 100 ng/ml) in 6 h 00 min PGHS-2 (or COX-2), an enzyme responsible (in the same way as COX-1) for the synthesis of PGH2, a precursor (inter alia) via PGFS, of PGF2α (Arias-Negrete et al., 1995. Biochem Biophys Res Commun, 208(2), 582-589).
In a 1st stage, macrophage precursors are cultured in a suitable medium, in the presence of a compound stimulating their differentiation and the induction of 15-PGDH, and then the production of prostaglandins by these cells is stimulated, for example by LPSs in the form of an extract or by purified LPSs; this 2nd stage is performed in the presence or otherwise of the compound to be tested. The concentrations of prostaglandins, in particular of PGF2α, obtained in the presence of the 15-PGDH inhibiting compound to be tested are compared to that of the control containing only the 15-PGDH inducer, it being possible to carry out this measurement by any method known to a person skilled in the art, in particular by immunoenzymatic assay. […]
All the wells will contain the same final quantity of DMSO.
Immediate evaluation of the quantity of PGF2α secreted by the cells (50 μl) under different conditions (molecules or controls) using an immunoenzymatic assay kit (Cayman ref. 516011). […]

[4] = protocol of Example 3, read-out: Inhibition of 15-PGDH at 50 μM

Row | SMILES | inhibition at 50 µM [1, 4] | IC50 [2] | IC50 ([1]; protocol of Example 3) | inhibition at 50 µM ([1]; read-out: % Inhibition 15-PGDH) | inhibition at 50 µM [2] | PGF2α secreted, % of the control (LPS control) [3]
1 | O=C(Cc1nnn(-c2ccccc2)n1)c1ccccc1 [Compound 1, 1-phenyl-2-(2-phenyl-2H-tetrazol-5-yl)ethanone] | 70% | > 75 µM | – | – | – | +16%
2 | COc1ccccc1NC(=O)Cn1nnc(-c2ccccc2)n1 [Compound 4, N-(2-methoxyphenyl)-2-(5-phenyl-2H-tetrazol-2-yl)acetamide] | 60% | > 75 µM | 55 µM | – | – | +6%
3 | Cc1ccc(NC(=O)Cn2nnc(-c3cccc(C(F)(F)F)c3)n2)cc1 [Compound R29A, N-(4-methylphenyl)-2-{5-[3-(trifluoromethyl)phenyl]-2H-tetrazol-2-yl}acetamide] | – | > 75 µM | 30 µM | – | – | +46%

More lines, main results first:

Row | inhibition at 50 µM [1, 4] | IC50 [2] | IC50 ([1]; protocol of Example 3) | inhibition at 50 µM ([1]; read-out: % Inhibition 15-PGDH) | inhibition at 50 µM [2] | SMILES | PGF2α secreted, % of the control (LPS control) [3]
4 | – | – | – | 43% | 5% | Nc1c(Cl)nc(-c2ccccc2)nc1Cl [Molecule A, 5-amino-4,6-dichloro-2-phenylpyrimidine] | –
5 | – | – | – | 57% | 10% | O=C(Nc1ncc2c(n1)CC(c1ccccc1Cl)CC2=O)c1ccccc1 (centres unmarked) [Molecule B, N-[7-(2-Chlorophenyl)-5-oxo-5,6,7,8-tetrahydroquinazolin-2-yl]benzamide] | –
